Blank lines part the entries; values can stand above or below the compound they belong to.
Columns and labels:
[1] = molecular target: T1, Purine nucleoside phosphorylase (Homo sapiens, UniProt P00491); assay: Inhibition of human PNP using inosine as substrate by xanthine oxidase coupled assay
T1 sequence (P00491 whole entry): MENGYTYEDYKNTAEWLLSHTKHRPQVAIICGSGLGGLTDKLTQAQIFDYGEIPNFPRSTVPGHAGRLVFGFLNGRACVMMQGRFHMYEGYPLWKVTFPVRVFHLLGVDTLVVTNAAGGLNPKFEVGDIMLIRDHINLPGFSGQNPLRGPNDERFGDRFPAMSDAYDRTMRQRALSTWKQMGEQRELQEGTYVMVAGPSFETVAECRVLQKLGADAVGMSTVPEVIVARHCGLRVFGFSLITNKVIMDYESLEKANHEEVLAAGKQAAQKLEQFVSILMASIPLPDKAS

[2] = molecular target: T2, Purine nucleoside phosphorylase (Bos taurus, UniProt P55859); assay: Inhibition of bovine spleen PNP using inosine as substrate by xanthine oxidase coupled assay
T2 sequence (P55859 whole entry): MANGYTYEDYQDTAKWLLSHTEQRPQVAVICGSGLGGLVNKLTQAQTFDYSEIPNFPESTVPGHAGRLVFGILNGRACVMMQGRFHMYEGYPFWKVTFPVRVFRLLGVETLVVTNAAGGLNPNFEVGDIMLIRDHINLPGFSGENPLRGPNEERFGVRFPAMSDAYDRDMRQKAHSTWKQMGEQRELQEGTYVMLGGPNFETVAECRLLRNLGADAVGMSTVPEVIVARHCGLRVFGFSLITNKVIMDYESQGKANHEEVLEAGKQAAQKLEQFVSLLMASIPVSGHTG

[3] = Inhibition of Crithidia fasciculata nucleoside hydrolase
[4] = molecular target: T1, Purine nucleoside phosphorylase; assay: Inhibition of human PNP
[5] = Oral bioavailability in mouse; format: ADME, organism-based; details: in vivo

SMILES: OC[C@H]1N[C@@H](c2cnc[nH]2)[C@H](O)[C@@H]1O
Ki [3]: 2500 nM

SMILES: Nc1nc2c(ncn2COCCO)c(=O)[nH]1 [ACYCLOVIR]
Ki [4]: 91000 nM

SMILES: O=c1[nH]cnc2c([C@@H]3N[C@H](CO)[C@@H](O)[C@H]3O)c[nH]c12 [FORODESINE]
bioavailability [5]: 63%

SMILES: OC[C@H]1NC[C@H](O)[C@@H]1O [IMINORIBITOL]
Ki [3]: 10000 nM

SMILES: Nc1nc2c(Cc3cccnc3)c[nH]c2c(=O)[nH]1 [PELDESINE]
Ki [4]: 13.5 nM

Continued, values first:

Ki [1]: 33 nM
Ki [2]: 2600 nM
SMILES: Nc1ncnc2c([C@@H]3N[C@H](CO)[C@@H](O)[C@H]3O)c[nH]c12

Ki [3]: 170 nM
SMILES: OC[C@H]1N[C@@H](c2ccccc2)[C@H](O)[C@@H]1O

Ki [2]: 422000 nM
SMILES: O=c1[nH]ccn2c([C@@H]3N[C@H](CO)[C@@H](O)[C@H]3O)cnc12

Ki [3]: 380000 nM
SMILES: O=c1[nH]cnc2c1ncn2[C@@H]1O[C@H](CO)[C@@H](O)[C@H]1O [INOSINE]

From ChEMBL document CHEMBL4368864, “The transition to magic bullets - transition state analogue drug design” (Medchemcomm, 2018)
